Experimental data taken from PubChem BioAssay (NCI).
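Dose response: 5 concentrations. Exposure: 48 h. Format: 96-well plates. Endpoint: linear interpolation; highest concentration if not reached. GI50 = concentration required for 50% inhibition of growth. TGI denotes the concentration required for complete inhibition of growth.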

How the values were obtained:
Assay in all cases: NCI tumour cell line growth inhibition, 48 h
TK-10 renal = tested on: TK-10 renal
A498 renal = tested on: A498 renal
SK-MEL-5 melanoma = tested on: SK-MEL-5 melanoma
IGROV1 ovarian = tested on: IGROV1 ovarian
SK-MEL-2 melanoma = tested on: SK-MEL-2 melanoma
786-0 renal = tested on: 786-0 renal
LOX IMVI melanoma = tested on: LOX IMVI melanoma
HT29 colon = tested on: HT29 colon
M14 melanoma = tested on: M14 melanoma
DU-145 prostate = tested on: DU-145 prostate

COc1ccc(-c2cc(C(=O)Nc3cccc(C(F)(F)F)c3)[nH]c(=S)n2)cc1
TGI (TK-10 renal): > 100 µM | TGI (A498 renal): > 100 µM | TGI (SK-MEL-5 melanoma): > 100 µM | TGI (IGROV1 ovarian): > 100 µM | TGI (SK-MEL-2 melanoma): > 100 µM | TGI (786-0 renal): > 100 µM | TGI (LOX IMVI melanoma): > 100 µM | TGI (HT29 colon): > 100 µM | TGI (M14 melanoma): > 100 µM

O=C1OCC(c2ccc(O)c(O)c2)=C1c1cc(O)c(O)c(O)c1
GI50 (TK-10 renal): 73.1 µM | TGI (TK-10 renal): > 100 µM | GI50 (A498 renal): > 100 µM | TGI (A498 renal): > 100 µM | GI50 (SK-MEL-5 melanoma): 38.2 µM | TGI (SK-MEL-5 melanoma): > 100 µM | GI50 (DU-145 prostate): 32.7 µM | TGI (DU-145 prostate): > 100 µM | GI50 (IGROV1 ovarian): 37.4 µM | TGI (IGROV1 ovarian): > 100 µM | GI50 (786-0 renal): 18.1 µM | TGI (786-0 renal): 32.7 µM | GI50 (LOX IMVI melanoma): 19.1 µM | TGI (LOX IMVI melanoma): 36.8 µM | GI50 (HT29 colon): 32.5 µM | TGI (HT29 colon): 98.2 µM | GI50 (M14 melanoma): 23.9 µM | TGI (M14 melanoma): 69.7 µM

CC(C)(C)c1nc2c(o1)C(=Nc1ccccc1)c1ccccc1C2=O
TGI (TK-10 renal): 59.6 µM | TGI (A498 renal): 36.4 µM | TGI (SK-MEL-5 melanoma): 2.97 µM | TGI (IGROV1 ovarian): 33.6 µM | TGI (SK-MEL-2 melanoma): 6.99 µM | TGI (786-0 renal): 64.3 µM | TGI (LOX IMVI melanoma): 4.14 µM | TGI (HT29 colon): 57.8 µM | TGI (M14 melanoma): 6.1 µM

O=C(NO)c1ccc(C(=O)NO)cc1
TGI (TK-10 renal): > 100 µM | TGI (A498 renal): > 100 µM | TGI (SK-MEL-5 melanoma): > 100 µM | TGI (DU-145 prostate): > 100 µM | TGI (IGROV1 ovarian): > 100 µM | TGI (786-0 renal): > 100 µM | TGI (LOX IMVI melanoma): > 100 µM | TGI (HT29 colon): > 100 µM | TGI (M14 melanoma): > 100 µM

COCCNCC(O)Cn1c2ccc(Cl)cc2c2cc(Cl)ccc21 (configuration not stated)
GI50 (TK-10 renal): 1.79 µM | TGI (TK-10 renal): 3.37 µM | GI50 (A498 renal): 1.73 µM | TGI (A498 renal): 5.32 µM | GI50 (SK-MEL-5 melanoma): 1.71 µM | TGI (SK-MEL-5 melanoma): 3.18 µM | GI50 (DU-145 prostate): 2.12 µM | TGI (DU-145 prostate): 4.05 µM | GI50 (SK-MEL-2 melanoma): 2.16 µM | TGI (SK-MEL-2 melanoma): 4.18 µM | GI50 (786-0 renal): 1.8 µM | TGI (786-0 renal): 3.42 µM | GI50 (HT29 colon): 2.23 µM | TGI (HT29 colon): 4.24 µM | GI50 (M14 melanoma): 2.06 µM | TGI (M14 melanoma): 4.16 µM

O=[N+]([O-])c1ccccc1S(=O)c1ccccc1 (configuration not stated)
TGI (TK-10 renal): > 100 µM | TGI (A498 renal): > 100 µM | TGI (SK-MEL-5 melanoma): > 100 µM | TGI (IGROV1 ovarian): > 100 µM | TGI (SK-MEL-2 melanoma): > 100 µM | TGI (786-0 renal): > 100 µM | TGI (LOX IMVI melanoma): > 100 µM | TGI (HT29 colon): > 100 µM | TGI (M14 melanoma): > 100 µM

CCOC(C)OCC#CCCBr (configuration not stated)
TGI (TK-10 renal): > 100 µM | TGI (SK-MEL-5 melanoma): > 100 µM | TGI (IGROV1 ovarian): > 100 µM | TGI (SK-MEL-2 melanoma): > 100 µM | TGI (786-0 renal): > 100 µM | TGI (LOX IMVI melanoma): > 100 µM | TGI (HT29 colon): > 100 µM | TGI (M14 melanoma): > 100 µM

[Cu+2].[Cu+2].[O-]c1ccccc1C=Nc1ccccc1[O-].[O-]c1ccccc1C=Nc1ccccc1[O-]
GI50 (TK-10 renal): 18.3 µM | TGI (TK-10 renal): 32.3 µM | GI50 (A498 renal): 14.4 µM | TGI (A498 renal): 28.1 µM | GI50 (SK-MEL-5 melanoma): 3.3 µM | TGI (SK-MEL-5 melanoma): 12 µM | GI50 (IGROV1 ovarian): 3.33 µM | TGI (IGROV1 ovarian): 12.2 µM | GI50 (SK-MEL-2 melanoma): 11.5 µM | TGI (SK-MEL-2 melanoma): 24.4 µM | GI50 (786-0 renal): 7.24 µM | TGI (786-0 renal): 20.3 µM | GI50 (LOX IMVI melanoma): 4.12 µM | TGI (LOX IMVI melanoma): 17.5 µM | GI50 (HT29 colon): 6.05 µM | TGI (HT29 colon): 27.4 µM | GI50 (M14 melanoma): 4.45 µM | TGI (M14 melanoma): 15.3 µM

O=S(=O)(Nc1ccc(-c2nc(-c3cccc(OCCN4CCOCC4)c3)c(-c3ccnc(Br)c3)[nH]2)cc1)c1ccccc1
GI50 (TK-10 renal): 4.16 µM | TGI (TK-10 renal): > 100 µM | GI50 (A498 renal): 1.53 µM | TGI (A498 renal): 6.94 µM | GI50 (SK-MEL-5 melanoma): 2.12 µM | TGI (SK-MEL-5 melanoma): 4.6 µM | GI50 (DU-145 prostate): 5.64 µM | TGI (DU-145 prostate): > 100 µM | GI50 (IGROV1 ovarian): 3.98 µM | TGI (IGROV1 ovarian): > 100 µM | GI50 (SK-MEL-2 melanoma): 2.59 µM | TGI (SK-MEL-2 melanoma): 6.87 µM | GI50 (786-0 renal): 2.37 µM | TGI (786-0 renal): 7.96 µM | GI50 (LOX IMVI melanoma): 1.62 µM | TGI (LOX IMVI melanoma): 3.42 µM | GI50 (M14 melanoma): 2.09 µM | TGI (M14 melanoma): 5.55 µM

O=C(Cc1ccccc1)Oc1ccc2c(-c3ccccc3)c(C(=O)Nc3ccc(Cl)cc3)c(=O)oc2c1
TGI (TK-10 renal): > 100 µM | TGI (A498 renal): > 100 µM | TGI (SK-MEL-5 melanoma): > 100 µM | TGI (IGROV1 ovarian): > 100 µM | TGI (786-0 renal): > 100 µM | TGI (LOX IMVI melanoma): > 100 µM | TGI (HT29 colon): > 100 µM | TGI (M14 melanoma): > 100 µM

COc1cc2c(cc1OC)C1c3ccccc3C(C#N)(C2)N(C(=O)c2ccccc2)C1O (configuration not stated)
TGI (TK-10 renal): > 100 µM | TGI (SK-MEL-5 melanoma): 90 µM | TGI (IGROV1 ovarian): > 100 µM | TGI (SK-MEL-2 melanoma): > 100 µM | TGI (786-0 renal): > 100 µM | TGI (LOX IMVI melanoma): > 100 µM | TGI (HT29 colon): > 100 µM | TGI (M14 melanoma): > 100 µM

Cc1ccc(S(=O)(=O)N(C)C)cc1[N+](=O)[O-]
GI50 (TK-10 renal): > 100 µM | TGI (TK-10 renal): > 100 µM | GI50 (A498 renal): > 100 µM | TGI (A498 renal): > 100 µM | GI50 (SK-MEL-5 melanoma): > 100 µM | TGI (SK-MEL-5 melanoma): > 100 µM | GI50 (DU-145 prostate): > 100 µM | TGI (DU-145 prostate): > 100 µM | GI50 (IGROV1 ovarian): 59.7 µM | TGI (IGROV1 ovarian): > 100 µM | GI50 (786-0 renal): > 100 µM | TGI (786-0 renal): > 100 µM | GI50 (LOX IMVI melanoma): > 100 µM | TGI (LOX IMVI melanoma): > 100 µM | GI50 (HT29 colon): > 100 µM | TGI (HT29 colon): > 100 µM | GI50 (M14 melanoma): > 100 µM | TGI (M14 melanoma): > 100 µM

CN(C)CCC1(C2=CCCC2)CC/C(=C\c2ccc3c(c2)OCO3)C1=O (configuration not stated)
TGI (TK-10 renal): 29.2 µM | TGI (A498 renal): 24.7 µM | TGI (SK-MEL-5 melanoma): 27.6 µM | TGI (SK-MEL-2 melanoma): 31.6 µM | TGI (786-0 renal): 26.9 µM | TGI (HT29 colon): 25.2 µM | TGI (M14 melanoma): 28.3 µM

COc1nc(OC)c2c(=O)oc(-c3ccccc3)cc2n1
TGI (TK-10 renal): > 100 µM | TGI (SK-MEL-5 melanoma): > 100 µM | TGI (IGROV1 ovarian): > 100 µM | TGI (SK-MEL-2 melanoma): > 100 µM | TGI (786-0 renal): > 100 µM | TGI (HT29 colon): > 100 µM

CCCCOC1CC2(c3ccc(OC)cc3)C(=O)c3ccccc3N2O1 (configuration not stated)
TGI (TK-10 renal): > 100 µM | TGI (A498 renal): > 10 µM | TGI (SK-MEL-5 melanoma): 88.4 µM | TGI (IGROV1 ovarian): > 10 µM | TGI (SK-MEL-2 melanoma): > 100 µM | TGI (786-0 renal): > 100 µM | TGI (LOX IMVI melanoma): > 10 µM | TGI (M14 melanoma): > 100 µM

CC(NC(=O)c1ccccc1)C(=O)N(Cc1ccccc1)Cc1ccccc1 (configuration not stated)
TGI (TK-10 renal): > 100 µM | TGI (A498 renal): 89.9 µM | TGI (SK-MEL-5 melanoma): 44.9 µM | TGI (IGROV1 ovarian): > 100 µM | TGI (SK-MEL-2 melanoma): 56.3 µM | TGI (786-0 renal): > 100 µM | TGI (LOX IMVI melanoma): 47.7 µM | TGI (HT29 colon): > 100 µM | TGI (M14 melanoma): 39.1 µM

O=C1CCC2(c3ccc(F)cc3)Nc3ccccc3N12 (configuration not stated)
TGI (TK-10 renal): > 100 µM | TGI (A498 renal): > 100 µM | TGI (SK-MEL-5 melanoma): > 100 µM | TGI (IGROV1 ovarian): > 100 µM | TGI (SK-MEL-2 melanoma): > 100 µM | TGI (786-0 renal): > 100 µM | TGI (LOX IMVI melanoma): > 100 µM | TGI (HT29 colon): > 100 µM | TGI (M14 melanoma): > 100 µM

CC(C)C1CN1CC(O)Cn1ccnc1[N+](=O)[O-] (configuration not stated)
TGI (TK-10 renal): > 100 µM | TGI (A498 renal): > 100 µM | TGI (SK-MEL-5 melanoma): > 100 µM | TGI (DU-145 prostate): > 100 µM | TGI (IGROV1 ovarian): > 100 µM | TGI (SK-MEL-2 melanoma): > 100 µM | TGI (786-0 renal): > 100 µM | TGI (HT29 colon): > 100 µM | TGI (M14 melanoma): > 100 µM

COC(=O)c1cnc2nc(N3CCOCC3)[nH]n2c1=O
TGI (TK-10 renal): > 100 µM | TGI (A498 renal): > 100 µM | TGI (SK-MEL-5 melanoma): > 100 µM | TGI (IGROV1 ovarian): > 100 µM | TGI (SK-MEL-2 melanoma): > 100 µM | TGI (786-0 renal): > 100 µM | TGI (LOX IMVI melanoma): > 100 µM | TGI (HT29 colon): > 100 µM | TGI (M14 melanoma): > 100 µM

COc1cc(OC)cc(N2CCC(c3c(N)nc(N)nc3Cl)CC2)c1
TGI (TK-10 renal): > 100 µM | TGI (SK-MEL-5 melanoma): 97.7 µM | TGI (IGROV1 ovarian): > 100 µM | TGI (SK-MEL-2 melanoma): > 100 µM | TGI (786-0 renal): > 100 µM | TGI (LOX IMVI melanoma): > 100 µM | TGI (M14 melanoma): > 100 µM
